Where two headings read alike, the source gives them in different places.
Key:
[1] = tested on: PC-3; assay: MTT proliferation assay, PC-3; assay type: cell-based, human; conditions: for IC50: Homo sapiens, PC-3, MTT, 72 h, read-out: IC50 (μM) PC-3
Excerpt: (§1) The antiproliferative and anti-invasive activities of compounds 1-14 were quantified using MTT and cell invasion assay kits, respectively. Latrunculin A (compound 1) was used as a positive control in all biological assays, because it is known to be an actin polymerization inhibitor, with cytotoxic, antiproliferative, and anti-invasive activities. The 3-[4,5-dimethylthiazol-2-yl]-2,5-diphenyl tetrazolium bromide (MTT) assay selectively detects living cells in a quantitative, colorimetric fashion, based on a living cell's ability to reduce MTT to an insoluble, purple formazan dye. The MTT assay is routinely used to assess cytotoxicity and proliferation inhibition activities. The antiproliferative activities of compounds 1-14 were measured against two human mammary gland adenocarcinoma cell lines, MCF7 and MDA-MB-231, and against human prostate cancer cells PC-3 at five different doses (0.1, 0.5, 1, 10, and 50 μM). While many of the semisynthetic latrunculins had similar activity levels, some had greater activity than compound 1. […] Although the MDA-MB-231 cells were more resistant than MCF7 against most latrunculin derivatives tested, compound 14 had potent activity against both cell lines.
(§2) MTT Proliferation Assay. The growth of MCF7, MDA-MB-231, and PC-3 cancer cell lines was measured using an MTT kit (TACS™, TREVIGEN®, Inc.). Exponentially growing cells were plated in a 96-well plate at a density of 8×10^3 cells per well, and allowed to attach for 24 h. Complete growth medium was then replaced with 100 μL of RPMI serum-free medium containing various concentrations (50, 10, 1, 0.5, 0.1 μM) of the particular test compound. Culture continued at 37° C. under 5% CO2. After 72 h of culture, the cells were treated with MTT solution (10 μL/well) at 37° C. for 4 h. The color reaction was stopped by adding solubilization/stop solution (100 μL/well). Incubation continued at 37° C. continued to completely dissolve the formazan dye product. Absorbance of the samples was determined at 570 nm with an ELISA plate reader (BioTek, VT). The number of cells per well was calculated against a standard curve that had been prepared by plating various concentrations of cells, as determined by hemocytometer, at the start of each experiment. IC50 for each compound was calculated using a nonlinear regression curve fit of log concentration versus the number of cells/well, using GraphPad Prism 5.0 (GraphPad Software, La Jolla, Calif.).

[2] = target: T1, pyrene-conjugated actin (Oryctolagus cuniculus, UniProt P68135); assay: Pyrene actin polymerization assay; assay type: biochemical; conditions: for inhibition at 0.1 µM: 100 nM, read-out: Actin polymerization inhibition (%) 100 nM; for inhibition at 0.1 µM / inhibition at 1 µM: compared to vehicle control (DMSO); for inhibition at 1 µM: read-out: Actin polymerization inhibition (%) 1 μM; for IC50: mean ± SEM, triplicate
T1 construct: purchased Cytoskeleton, Denver, Colo
Method: An actin polymerization kit was used to assess the direct actin-binding activity of each analogue at two concentrations: 100 nM and 1 μM. This kit is based on the enhanced fluorescence of pyrene-conjugated actin that occurs during polymerization. When pyrene-G-actin (monomer) forms pyrene-F-actin, fluorescence is enhanced. The enhanced fluorescence is used to follow polymerization over time. Table 2 lists activities as the percentage of actin polymerization inhibition, compared to the negative vehicle control (DMSO), along with calculated IC50.
Pyrene-Actin Polymerization Assays. Actin polymerization assays were performed in accordance with the manufacturer's instructions (Cytoskeleton, Denver, Colo.). Briefly, […] final concentration of monomeric actin (1:10 pyrene labeled) was incubated on ice for 10 min with one of various concentrations of one of the latrunculin derivatives. Samples were then equilibrated 10 min in an ELISA plate reader (BioTek, VT), after which polymerization was induced by adding KCl, MgCl2, and ATP. Compounds 1-14 were tested at 0.1, 0.5, 1.0, and 10 μM. The IC50 for each compound was calculated using GraphPad Prism 5.0.
Pyrene-actin polymerization assays. Actin polymerization inhibitory activity is assessed using the Cytoskeleton Actin Polymerization kit (Cytoskeleton, Denver, Colo.). Briefly, […] (final concentration) of monomeric actin (1:10 pyrene labeled) is incubated on ice for 10 min with one of various concentrations of the test latrunculin compound. Samples are equilibrated 10 min in an ELISA plate reader (BioTek, VT), after which polymerization is induced by adding KCl, MgCl2, and ATP. Compounds are tested at 0.1, 0.5, 1.0, and 10 μM. The IC50 for each compound is calculated using GraphPad Prism 5.0.

[3] = tested on: microvessel density marker CD31 in endothelial colony forming cells (ECFCs); assay: Angiogenesis inhibition assay (CD31 in ECFCs); assay type: cell-based
Method: Effects on Angiogenesis. Angiogenesis inhibition assays were conducted using endothelial colony forming cells (ECFCs). The microvessel density marker CD31 was quantified using confocal laser scanning microscopy and immunohistochemistry.

[4] = tested on: MDA-MB-231; assay: MTT proliferation assay, MDA-MB-231; assay type: cell-based, human; conditions: for IC50: Homo sapiens, MDA-MB-231, MTT, 72 h, mean ± SEM, read-out: IC50 (μM) MDA-MB-231
Excerpt: as §1, §2

| SMILES | IC50 [1] [µM] | inhibition at 0.1 µM [2] [%] | inhibition at 1 µM [2] [%] | IC50 [2] [nM] | inhibition at 2 µM [3] [%] | inhibition at 10 µM [3] [%] | IC50 ([3]; read-out: IC50 CD31 in ECFCs) [nM] | IC50 [4] [µM] | fold increase in activity against PC-3 versus compound 1 ([1]; relative to compound 1) [fold] | IC50 ([3]; read-out: antiangiogenic activity IC50 range) [nM] | factor of greater activity than compound 1, MDA-MB-231 proliferation assay ([4]; assessed at 1 μM) |
| --- | --- | --- | --- | --- | --- | --- | --- | --- | --- | --- | --- |
| COc1ccc(CC(=O)N2C(=O)SC[C@H]2[C@@]2(OC)C[C@H]3C[C@@H](CC[C@H](C)/C=C\C=C\CC/C(C)=C\C(=O)O3)O2)cc1 [Compound 11, 17-O-Methyl-N-(7′-methoxyphenylacetyl)latrunculin A] | 19.8 | 0 | 13 | > 10000 | 100 | 100 | < 43 | 26.2 ± 3.91 | – | – | – |
| C/C1=C/C(=O)O[C@@H]2C[C@@H](CC[C@H](C)/C=C\C=C\CC1)O[C@@](O)([C@@H]1CSC(=O)N1CO)C2 [Compound 14, N-Hydroxymethyllatrunculin A] | 0.36 | 35 | 90 | 210 ± 54 | 100 | 100 | 63 | 2.99 ± 0.15 | 10.8 | 40 to 820 | 1.4 |
